According to US20030229030A1, “Method of treating interleukin-6-mediated inflammatory diseases” (priority 2002, published 2003):
Where “and” joins values, the source holds several entries; their conditions need not be identical. Identical values can stand only once. Marks after values point to notes of the source that are not given here. Ends that are not written are not given here.

How the values were obtained:
[1] = system: IL-6 secretion from hCBMC; test: IL-6 secretion from human cord blood-derived mast cells (hCBMC), ELISA; assay type: cell-based; conditions: for secretion of IL-6 (FIG. 3): n=4
Description: (§1) Human cord blood-derived mast cells (HCBMC) were grown from CD34+ progenitor mononuclear umbilical cells isolated from umbilical cord blood by positive selection of AC133 (CD 133+/CD34+high) cells by magnetic cell sorting (Miltenyi Biotec, Auburn, Calif.). CD34+ cells were then cultured in Isocove's Modified Dulbecco's Medium (1MDM) containing 100 ng/ml Stem Cell Factor (from Amgen, Thousand Oaks, Calif.) plus test components in 10% FBS at 37° C. in 5% CO2 balanced air. By 10 weeks, 95% of the cells in culture could be identified as mast cells by immuno-staining for tryptase. hCBMC were washed three times in PBS and resuspended in culture medium (1×10^5 cells/200 ul sample). Test substances, e.g., IL-1 were added and cells were incubated at 37° C. in 5% CO2 for six hours for dose-response experiments or for the indicated times in time-course experiments. IL-6 and tryptase were measured in cell-free supernatant fluids by ELISA (R&D Systems, Minneapolis, Minn.) and fluoroenzymeimmunoassay (Pharmacia, Uppsala, Sweden), respectively.
(§2) Dose-response of IL-6 and tryptase secretion from hCBMC and HMC-1 cells were tested after stimulation for six hours with indicated concentrations of IL-1 or other stimuli. Time-course of IL.6 production induced by 50 ng/ml of IL-1 a from CBMC or by 10 ng/ml IL-1 from HMC-1 cells could be tested.
The data in general represent means +/− standard error of the mean from 3 to 4 experiments done in duplicate for each cell type used.

[2] = system: IL-6 production from rat peritoneal macrophages; test: IL-6 production from LPS-stimulated rat peritoneal macrophages; assay type: cell-based; conditions: rat macrophages stimulated by LPS; quercetin dihydrate 100 μM, 10 mins prior to stimulus, 6 hrs
Description: (§3) In this experiment, the effect of quercetin on the production of IL-6 and TNF-a from rat peritoneal macrophages and human mast cells that are involved in inflammation was studied. [table]

[3] = system: TNF-α production from rat peritoneal macrophages; test: TNF-α production from LPS-stimulated rat peritoneal macrophages; assay type: cell-based; conditions: rat macrophages stimulated by LPS; quercetin dihydrate 100 μM, 10 mins prior to stimulus, 6 hrs
Description: as §3

[4] = system: TNF-α production from human mast cells (hCBMC); test: TNF-α production from hCBMC stimulated by IgE and anti-IgE; assay type: cell-based; conditions: quercetin dihydrate 100 μM, 10 mins prior to stimulus, 6 hrs
Description: as §3

[5] = system: IL-6 secretion from human mast cells; test: IL-6 production and secretion from human mast cells, quercetin alone or with IL-1; assay type: cell-based
Description: as §1
In this experiment, the effects of quercetin, alone or together with IL-1, on the production and secretion of IL-6 from human mast cells was studied.

[6] = system: IL-6 secretion from HMC-1 cells; test: IL-6 secretion from HMC-1 human leukemic mast cells; assay type: cell-based; conditions: quercetin 10 μM, IL-10 2 ng/ml
Description: Human leukemic mast cells (HMC-1) was obtained from Dr. Butterfield (Mayo Clinic, Rochester, Minn.), and cultured in IMDM medium supplemented with 10% FBS, PBS and 2 μM alpha.thioglycerol. HCBMC or HMC-I cells 2×10^5/200 μl sample were stimulated in full culture medium as indicated.
as §2
The effect of IL-10 on HMC-1 leukemic cells producing IL-6, especially cells stimulated by IL-1 that induces selective release of IL-6, was studied alone or together with a flavonoid compound.

[7] = system: tryptase secretion from hCBMC; test: Tryptase secretion from hCBMC mast cell granules, fluoroenzymeimmunoassay; assay type: cell-based, human; conditions: stimulus alone: CRH 5 × 10^−5M, IL-1 50 ng/ml, anti-IgE 10 μg/ml
Description: as §1
Dose-response of IL-6 and tryptase secretion from hCBMC and HMC-1 cells were tested after stimulation for six hours with indicated concentrations of IL-1 or other stimuli. Time-course of IL.6 production induced by 50 ng/ml of IL-1 a from CBMC or by 10 ng/ml IL-1 from HMC-1 cells could be tested. […]

[8] = hCBMC + anti-IgE, azelastine 1 μM, quercetin 10 μM
[9] = hCBMC, substance alone: anti-IgE, azelastine 1 μM, quercetin 10 μM
[10] = IL-1 50 ng/ml + quercetin 10 μM
[11] = IL-1 50 ng/ml + quercetin 100 μM
[12] = HMC-1, substance alone: IL-1 50 ng/ml

CN1CCCC(n2nc(Cc3ccc(Cl)cc3)c3ccccc3c2=O)CC1 (centres unmarked) [Azelastine, reference compound]
inhibition of IL-6 secretion from hCBMC ([1]; azelastine at concentrations below 1 μM): ineffective | IL-6 (pg/ml/5 × 105cells) [1, 8]: 30.6 pg/ml/5 × 105cells | inhibition of IL-6 secretion from hCBMC (FIG. 4) ([1]; hCBMC + anti-IgE, dose-dependent): potent inhibitor | IL-6 secretion (FIG. 4) ([1]; hCBMC, azelastine 60 μM): below control levels | IL-6 (pg/ml/5 × 105cells) [1, 9]: 11.9 pg/ml/5 × 105cells

O=c1c(O)c(-c2ccc(O)cc2O)oc2cc(O)cc(O)c12 [Morin, reference compound]
secretion of IL-6 (FIG. 3) ([1]; hCBMC + anti-IgE, morin (100-0.01 μM listed)): only a small effect

O=c1c(O)c(-c2ccc(O)c(O)c2)oc2cc(O)cc(O)c12 [Quercetin, quercetin]
Inhibition (% of total) IL-6 [2]: 96.3 % of total | Inhibition (% of total) TNF-α [3]: 88.3 % of total | IL-6 (pg/ml/5 × 105cells) [1, 8]: 21.4 pg/ml/5 × 105cells | Inhibition (% total) [1, 8]: 32.9 % total | secretion of IL-6 (FIG. 3) ([1]; hCBMC + anti-IgE, three lower concentrations of quercetin (1, 0.1, 0.01 μM)): only slightly reduced | secretion of IL-6 (FIG. 3) ([1]; hCBMC + anti-IgE, two highest concentrations of quercetin (100, 10 μM)): greatly reduced | Inhibition (% of total) IL-6 ([1]; hCBMC stimulated by IgE and anti-IgE, quercetin dihydrate 100 μM, 10 mins prior to stimulus, 6 hrs): 95.8 % of total | secretion of IL-6 from mast cells stimulated by anti-IgE ([1]; hCBMC, 0.1 mM quercetin 30 mins, then anti-IgE 6 hrs, replicated 6 times): profoundly inhibited | IL-6 (pg/10^6 cells) ([1]; hCBMC, quercetin 0.1 mM alone, no anti-IgE): 10.8 pg/10^6 cells | IL-6 (pg/10^6 cells) ([1]; hCBMC, quercetin 0.1 mM for 10 mins prior to addition of anti-IgE): 50.5 pg/10^6 cells | IL-6 (pg/ml/5 × 105cells) [1, 9]: 9.8 pg/ml/5 × 105cells | Inhibition (% of total) TNF-α [4]: 78.3 % of total | IL-6 (pg/ml/5 × 10^5 cells) [5, 10]: 300.1 pg/ml/5 × 10^5 cells | Inhibition (% total) [5, 10]: 32.7* % total | IL-6 (pg/ml/5 × 10^5 cells) [5, 11]: 150.4 pg/ml/5 × 10^5 cells | Inhibition (% total) [5, 11]: 82.0* % total | IL-6 (pg/ml/5 × 10^5 cells) ([5]; quercetin 10 μM alone): 74.9 pg/ml/5 × 10^5 cells | IL-6 (pg/ml/5 × 10^5 cells) ([5]; quercetin 100 μM alone): 56.1 pg/ml/5 × 10^5 cells | IL-6 (pg/ml/10^5 cells) ([6]; HMC-1 + IL-1 (50 ng/ml)): 299.0 pg/ml/10^5 cells | Inhibition (% total) ([6]; HMC-1 + IL-1 (50 ng/ml)): 5.37 % total | IL-6 (pg/ml/10^5 cells) [6, 12]: 79.8 pg/ml/10^5 cells

CRH: corticotropin-releasing hormone (SEEPPISLDLTFHLLREVLEMARAEQLAQQAHSNRKLMEII; ends and bridges not checked; UniProt P06850 154-194, looked up)
IL-6 (pg/ml/5 × 10^6 cells) ([1]; hCBMC, stimulus alone: CRH 5 × 10^−5M, IL-1 50 ng/ml, anti-IgE 10 μg/ml): 33.3 +/− 3.5 pg/ml/5 × 10^6 cells | Tryptase % total [7]: 4.20 % total and 4.26 % total

B1: IL-10: interleukin-10 (protein, UniProt P22301 19-178, looked up)
Interleukin-10: SPGQGTQSENSCTHFPGNLPNMLRDLRDAFSRVKTFFQMKDQLDNLLLKESLLEDFKGYLGCQALSEMIQFYLEEVMPQAENQDPDIKAHVNSLGENLKTLRLRLRRCHRFLPCENKSKAVEQVKNAFNKLQEKGIYKAMSEFDIFINYIEAYMTMKIRN
IL-6 (pg/ml/10^5 cells) ([6]; HMC-1 + IL-1 (50 ng/ml)): 275.9 pg/ml/10^5 cells | Inhibition (% total) ([6]; HMC-1 + IL-1 (50 ng/ml)): 31.32 % total | IL-6 (pg/ml/10^5 cells) [6, 12]: 85.6 pg/ml/10^5 cells
